A short description of the series: In vitro release of Ketotifen-hydrogenfumarate from drug-loaded polymeric matrix. Conditions: under the same conditions (stirred aqueous system). It counts as physicochemical. On the procedure: Two consecutive batches of the polymeric matrix were prepared at lab scale and loaded with the selected water-soluble investigational drug, Ketotifen hydrogenfumarate in accordance with the method described in Example 11. The in vitro release profile of the Ketotifen depot formulation was carried out as follows: […]
1 g of the dry polymeric matrix loaded with Ketotifen-hydrogenfumarate according to Example 11. was stirred with 600 r.p.m. in 50 ml of deionised water at 37° C. The released amount of Ketotifen-hydrogenfumarate was determined by HPLC.
Matrices with 8% Ketotifen load were prepared as described in Example 11. Using two different Hyaluronic acid containing reaction mixtures. One contained 1%, while the other 0.5% hyaluronic acid. […] (See Table 7.) The in vitro dissolution test was performed as described in Example 12.

As to `CN1CCC(=C2c3ccccc3CC(=O)c3sccc32)CC1` [non-formulated plain Ketotifen, Ketotifen-hydrogenfumarate], the “release compared with the matrix” value is given as “much faster”.

(Values after patent US20080299166A1, “NOVEL BIOMATERIALS, THEIR PREPARATION AND USE” (priority 2002, published 2008).)
